From patent US7396554B2, “Antioxidant sesame extract” (Council of Scientific & Industrial Research, priority 2002, dated 2008)

Legend:
rats = conditions: Nobuyuki Ito 1982, cited via U.S. Pat. No. 5,043,100; cited from earlier work
[1] = DPPH radical quenching / free radical scavenging test; assay type: biochemical; conditions: Conc. of antioxidant 20 μM
Method: The radical quenching efficiency of the extract was also tested by widely reported standard methods like di-phenyl picryl hydrazyl (DPPH) radical according to the methods of W. Brand Williams, M. E. Cuvelier and C. Berset, Lebesm.-Wiss.

[2] = DSC oxidative stability of soybean oil, isothermal 150° C. under oxygen flow; conditions: soybean oil stored one week at 60° C.; antioxidant 200 mg per Kg of oil
Excerpt: DSC experiments: Differential Scanning Calorimeter. The Mettler Toledo instrument used for carrying out the studies, is configured to follow oxidative stability of vegetable oils at a desired higher temperature under oxygen flow. […] With the help of an inbuilt program of the instrument, the induction period in ‘time-units’ could be calculated. This is indicated in the diagram as ‘onset’ time. Longer ‘onset’ time indicates better protection. […] DSC profiles of purified sesame extracts have been included here. In FIG. 6, the oxidative stability of soybean oil stored at 60° C. for 7 days has been depicted. (The storage study continued for one month. The extent of protection as measured in DSC was studied here.). Each experiment such as Control alone, (soybean oil+BHT), (oil+TBHQ), (oil+Sesame extract at 10 ppm, 50 ppm, 200 ppm) etc were carried out separately. For comparison sake, the different profiles have been overlaid in the same figure. In FIG. 6, the concentrations of BHT and TBHQ are 200 mg per Kg. of oil. For comparison, the profile of oil containing sesame extract at 50 ppm is also depicted in the overlaid diagram. […]

[3] = DSC oxidative stability of safflower oil, isothermal 150° C. under oxygen flow; conditions: fresh safflower oil; antioxidant 200 mg per Kg of oil
Excerpt: DSC experiments: Differential Scanning Calorimeter. The Mettler Toledo instrument used for carrying out the studies, is configured to follow oxidative stability of vegetable oils at a desired higher temperature under oxygen flow. […] With the help of an inbuilt program of the instrument, the induction period in ‘time-units’ could be calculated. This is indicated in the diagram as ‘onset’ time. Longer ‘onset’ time indicates better protection. […] DSC profiles of purified sesame extracts have been included here. As explained elsewhere, the Figure represents overlaid DSC profiles of safflower oil containing synthetic and sesame antioxidants at few select concentrations. The onset time has been recorded in the printout of the profile. The oxidative stability of vegetable oils containing synthetic antioxidants (BHT and TBHQ at 50-200 ppm) and sesame extract at different levels 3 to 1000 ppm were also tested in the Differential Scanning Calorimeter (Mettler Toledo, model 821) under flow of oxygen (40 ml/min.). The heating regime followed was isothermal at 150° C. and from the curves obtained (FIGS. 6, 7), the ‘onset-time’ of oxidative changes under identical conditions could be found out by making use of an inbuilt program of the instrument, the induction period represented by the onset time, can be correlated with the onset of rancidity.

Compound	carcinogenicity (rats)	Free radical Scavenging Effect after 30 min. [1]	DSC onset time [2] [min]	DSC onset time [3] [min]
COc1ccc(O)c(C(C)(C)C)c1 [BHA, Butylated Hydroxy Anisole]	carcinogenic in rats	–	–	–
Cc1cc(C(C)(C)C)c(O)c(C(C)(C)C)c1 [BHT, Butylated Hydroxy Toluene]	–	81.61	7.30	7.23
CC(C)(C)c1cc(O)ccc1O [TBHQ, tert-Butyl Hydro Quinone]	–	98.88	20.48	10.01
O=C(OC[C@H]1O[C@@H](OC(=O)c2cc(O)c(O)c(OC(=O)c3cc(O)c(O)c(O)c3)c2)[C@H](OC(=O)c2cc(O)c(O)c(OC(=O)c3cc(O)c(O)c(O)c3)c2)[C@@H](OC(=O)c2cc(O)c(O)c(OC(=O)c3cc(O)c(O)c(O)c3)c2)[C@@H]1OC(=O)c1cc(O)c(O)c(OC(=O)c2cc(O)c(O)c(O)c2)c1)c1cc(O)c(O)c(OC(=O)c2cc(O)c(O)c(O)c2)c1 [Tannic Acid]	–	98.88	–	–
Catechin	–	98.51	–	–
